Measurements from ChEMBL document CHEMBL6103589, “Synthesis and evaluation of novel ebselen derivatives as urease inhibitors for combating Helicobacter pylori infections” (Eur J Med Chem, 2025).
Active and inactive are the calls of the source. The calls are words filed in the database; no cut-off is given here.

Legend:
GES1 [1] = experiment: Induction of DNA damage in human GES1 cells infected (25 to 400:1 MOI) with Helicobacter pylori ATCC 43504 assessed as increase in gammaH2AX levels at 25 to 50 uM by SP8 laser confocal microscopic analysis; assay type: functional, cell-based; conditions: dose 25-50 µM
Helicobacter pylori [2] = experiment: Protection against Helicobacter pylori ATCC 43504 infected (MOI 50:1) in human GES1 cell injury model assessed as viable cells at 25 uM pre-treated for 2 hrs measured after 6 hrs by Annexin/V-FITC staining based flow cytometry analysis (reference value: 81.14%); assay type: functional; conditions: time 8 hrs
[3] = Acute toxicity in BALB/c mouse assessed as change in daily behaviour at 1 g/Kg, po single dose administered for 7 days; assay type: organism-based; conditions: in vivo, 1000 mg/kg, 168 h, time 7 day
Helicobacter pylori [4] = experiment: (§1) Protection against Helicobacter pylori ATCC 43504 infected (MOI 200:1) in human GES1 cell injury model assessed as late apoptotic cells at 50 uM pre-treated for 2 hrs followed by bacterial infection measured after 6 hrs by Annexin/V-FITC staining based flow cytometry analysis (reference value: 6.28%); assay type: functional; conditions: time 8 hrs
Helicobacter pylori [5] = experiment: Protection against Helicobacter pylori ATCC 43504 infected (MOI 50:1) in human GES1 cell injury model assessed as necrotic cells at 25 uM pre-treated for 2 hrs followed by bacterial infection measured after 6 hrs by Annexin/V-FITC staining based flow cytometry analysis (reference value: 2.85%); assay type: functional; conditions: time 8 hrs
GES1 [6] = experiment: Induction of DNA damage in human GES1 cells infected (25 to 400:1 MOI) with Helicobacter pylori ATCC 43504 assessed as decrease in gammaH2AX levels at 50 uM by SP8 laser confocal microscopic analysis; assay type: functional, cell-based; conditions: time 20.0 min
Helicobacter pylori [7] = experiment: Protection against Helicobacter pylori ATCC 43504 infected (MOI 50:1) in human GES1 cell injury model assessed as late apoptotic cells at 50 uM pre-treated for 2 hrs followed by bacterial infection measured after 6 hrs by Annexin/V-FITC staining based flow cytometry analysis (reference value: 2.85%); assay type: functional; conditions: time 8 hrs
Helicobacter pylori [8] = experiment: (§2) Protection against Helicobacter pylori ATCC 43504 infected (MOI 25:1) in human GES1 cell injury model assessed as late apoptotic cells at 25 uM pre-treated for 2 hrs followed by bacterial infection measured after 6 hrs by Annexin/V-FITC staining based flow cytometry analysis (reference value: 0.31%); assay type: functional; conditions: time 8 hrs
Helicobacter pylori [9] = experiment: as §1, with “at 25” for “at 50”; assay type: functional; conditions: time 8 hrs
Helicobacter pylori [10] = experiment: Protection against Helicobacter pylori ATCC 43504 infected (MOI 200:1) in human GES1 cell injury model assessed as viable cells at 25 uM pre-treated for 2 hrs followed by bacterial infection measured after 6 hrs by Annexin/V-FITC staining based flow cytometry analysis (reference value: 57.87%); assay type: functional; conditions: time 8 hrs
Helicobacter pylori [11] = experiment: (§3) Protection against Helicobacter pylori ATCC 43504 infected (MOI 300:1) in human GES1 cell injury model assessed as necrotic cells at 50 uM pre-treated for 2 hrs followed by bacterial infection measured after 6 hrs by Annexin/V-FITC staining based flow cytometry analysis (reference value: 6.05%); assay type: functional; conditions: time 8 hrs
Helicobacter pylori [12] = experiment: (§4) Protection against Helicobacter pylori ATCC 43504 infected (MOI 100:1) in human GES1 cell injury model assessed as necrotic cells at 50 uM pre-treated for 2 hrs followed by bacterial infection measured after 6 hrs by Annexin/V-FITC staining based flow cytometry analysis (reference value: 2.82%); assay type: functional; conditions: time 8 hrs
GES1 [13] = experiment: Induction of ROS generation in human GES1 cells infected (25 to 400:1 MOI) with Helicobacter pylori ATCC 43504 assessed as increase in fluorescence intensity at 25 to 50 uM by DCFH-DA based Immunofluorescence analysis; assay type: functional, cell-based; conditions: dose 25-50 µM
GES1 [14] = experiment: Induction of DNA damage in human GES1 cells infected (25 to 400:1 MOI) with Helicobacter pylori ATCC 43504 assessed as decrease in gammaH2AX levels by measuring fluorescence intensity at 25 to 50 uM by SP8 laser confocal microscopic analysis; assay type: functional, cell-based; conditions: dose 25-50 µM
[15] = Acute toxicity in BALB/c mouse assessed as pathological abnormality in liver at 1 g/Kg, po single dose administered for 7 days by HE staining based analysis; assay type: organism-based; conditions: in vivo, 1000 mg/kg, 168 h, time 7 day
Helicobacter pylori [16] = experiment: as §2, with “400:1)” for “25:1)”, “early” for “late”, “42.41 %)” for “0.31%)”; assay type: functional; conditions: time 8 hrs
Helicobacter pylori [17] = experiment: as §3, with “early apoptotic” for “necrotic”, “34.57 %)” for “6.05%)”; assay type: functional; conditions: time 8 hrs
Helicobacter pylori [18] = experiment: Protection against Helicobacter pylori ATCC 43504 infected (MOI 50:1) in human GES1 cell injury model assessed as early apoptotic cells at 25 uM pre-treated for 2 hrs measured after 6 hrs by Annexin/V-FITC staining based flow cytometry analysis (reference value: 13.16 %); assay type: functional; conditions: time 8 hrs
Helicobacter pylori [19] = experiment: Protection against Helicobacter pylori ATCC 43504 infected (MOI 25:1) in human GES1 cell injury model assessed as necrotic cells at 50 uM pre-treated for 2 hrs measured after 6 hrs by Annexin/V-FITC staining based flow cytometry analysis (reference value: 0.66%); assay type: functional; conditions: time 8 hrs
Helicobacter pylori [20] = experiment: In vivo protection against Helicobacter pylori ATCC 43504 infected in BALB/c mouse gastric mucosa model assessed as appearance of intact lamina propria at high dose administered once a day for 2 weeks by HE staining based analysis; assay type: functional, organism-based
Helicobacter pylori [21] = experiment: as §4, with “early apoptotic” for “necrotic”, “24.66 %)” for “2.82%)”; assay type: functional; conditions: time 8 hrs
Helicobacter pylori [22] = experiment: as §3, with “400:1)” for “300:1)”, “reduction in cell apoptosis rate” for “necrotic cells”, “56.03%)” for “6.05%)”; assay type: functional; set-up: scale not given: the % may be the effect or the level left; conditions: time 8 hrs
Helicobacter pylori [23] = experiment: In vivo protection against Helicobacter pylori ATCC 43504 infected in BALB/c mouse gastric mucosa model assessed as appearance of intact tissue structure at low dose administered once a day for 2 weeks by HE staining based analysis; assay type: functional, organism-based
Helicobacter pylori [24] = experiment: as §1, with “100:1)” for “200:1)”, “4.16%)” for “6.28%)”; assay type: functional; conditions: time 8 hrs
Helicobacter pylori [25] = experiment: In vivo protection against Helicobacter pylori ATCC 43504 infected in BALB/c mouse gastric mucosa model assessed as effect on hyperplasia at high dose administered once a day for 2 weeks by HE staining based analysis; assay type: functional, organism-based
[26] = Acute toxicity in BALB/c mouse assessed as pathological abnormality in lungs at 1 g/Kg, po single dose administered for 7 days by HE staining based analysis; assay type: organism-based; conditions: in vivo, 1000 mg/kg, 168 h, time 7 day
Helicobacter pylori [27] = experiment: Protection against Helicobacter pylori ATCC 43504 infected (MOI 300:1) in human GES1 cell injury model assessed as viable cells at 25 uM pre-treated for 2 hrs followed by bacterial infection measured after 6 hrs by Annexin/V-FITC staining based flow cytometry analysis (reference value: 47.43%); assay type: functional; conditions: time 8 hrs
Helicobacter pylori [28] = experiment: Antibacterial activity against Helicobacter pylori ATCC 43504 assessed as inhibition of bacterial colonies at 8 ug/mL incubated for 24 hrs by crystal violet based staining based analysis relative to control; assay type: functional; set-up: scale not given: the % may be the effect or the level left; conditions: dose 8 µg/ml

O=C(Oc1n[se]c2ccccc12)c1cccc(F)c1
Activity (GES1 [1]): Active
Activity (Helicobacter pylori [2]): 95.32%
Activity [3]: Non-toxic
Activity (Helicobacter pylori [4]): 0.21%
Activity (Helicobacter pylori [5]): 0.14%
Activity (GES1 [6]): Active
Activity (Helicobacter pylori [7]): 0.02%
Activity (Helicobacter pylori [8]): 0.02%
Activity (Helicobacter pylori [9]): 0.02%
Activity (Helicobacter pylori [10]): 87.8%
Activity (Helicobacter pylori [11]): 2.01%
Activity (Helicobacter pylori [12]): 0.16%
Activity (GES1 [13]): Active
Activity (GES1 [14]): Active
Activity [15]: Non-toxic
Activity (Helicobacter pylori [16]): 17.23%
Activity (Helicobacter pylori [17]): 3.14%
Activity (Helicobacter pylori [18]): 4.49%
Activity (Helicobacter pylori [19]): 0.43%
Activity (Helicobacter pylori [20]): Active
Activity (Helicobacter pylori [21]): 2.79%
Activity (Helicobacter pylori [22]): 47.7%
Activity (Helicobacter pylori [23]): Active
Activity (Helicobacter pylori [24]): 0.23%
Activity (Helicobacter pylori [25]): inactive
Activity [26]: Non-toxic
Activity (Helicobacter pylori [27]): 83.86%
Activity (Helicobacter pylori [28]): 100%
